Article PMC4280904 (Journal of Veterinary Pharmacology and Therapeutics, 2014)
Marks after values point to notes of the source that are not given here.

Columns and labels:
[1] = Dose linearity of imepitoin after oral dosing; assay type: in vivo, beagle dogs; settings: for Tmax: both, beagle, dog, plasma, po; for Tlag obs: enteric-coated capsules, mean ± SEM, n=6
[2] = system: canine idiopathic epilepsy; settings: epileptic dogs, dose escalation; ref Löscher et al., 2004; Rieck et al., 2006; cited from earlier work
NAT1 = experiment: In vivo enzyme induction: N-acetyltransferase, p-aminobenzoic acid; set-up: species or system Wistar rats; settings: rats, 3–100 mg/kg p.o. once daily 7 days
CYP2C8 = CYP2C8 (Homo sapiens, UniProt P10632); experiment: In vitro enzyme inhibition, recombinant CYP, fluorescent metabolites; assay type: in vitro ADME; settings: up to the highest concentration tested (100 μM)
Sequence of CYP2C8 (P10632 whole entry): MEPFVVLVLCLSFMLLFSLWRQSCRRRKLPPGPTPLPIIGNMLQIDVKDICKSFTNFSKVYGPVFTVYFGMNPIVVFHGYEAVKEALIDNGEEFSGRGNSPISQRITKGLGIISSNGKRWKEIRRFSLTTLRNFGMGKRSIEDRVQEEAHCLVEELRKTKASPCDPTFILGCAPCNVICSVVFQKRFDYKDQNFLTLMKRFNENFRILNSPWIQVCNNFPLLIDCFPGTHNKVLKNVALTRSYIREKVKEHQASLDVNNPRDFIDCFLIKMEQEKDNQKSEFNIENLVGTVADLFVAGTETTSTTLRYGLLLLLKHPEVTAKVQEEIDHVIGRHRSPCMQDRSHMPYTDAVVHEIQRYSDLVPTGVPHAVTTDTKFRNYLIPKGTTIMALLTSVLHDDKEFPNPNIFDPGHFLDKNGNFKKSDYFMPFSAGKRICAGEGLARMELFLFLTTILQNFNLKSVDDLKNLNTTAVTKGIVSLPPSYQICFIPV

[3] = dogs, 5 mg/kg, at time of seizure induction; ref Löscher et al., 2004; cited from earlier work
[4] = ref Heinecke & Thiel, 2001; cited from earlier work
CYP2D1 = experiment: In vivo enzyme induction: dextromethorphan O-demethylase; set-up: species or system Wistar rats; settings: rats, 3–100 mg/kg p.o. once daily 7 days
[5] = ref Heinecke & Thiel, 2001; cited from earlier work; remark: listed apart in the source
Single dose and repeated = assay type: in vivo, beagle dogs; settings: 30 mg/kg tablets p.o.; for AUC(0-inf): AUCinf; for Vd/F: Vz/f
CYP2A6 = CYP2A6 (Homo sapiens, UniProt P11509); experiment: In vitro enzyme inhibition, recombinant CYP, fluorescent metabolites; assay type: in vitro ADME
Sequence of CYP2A6 (P11509 whole entry): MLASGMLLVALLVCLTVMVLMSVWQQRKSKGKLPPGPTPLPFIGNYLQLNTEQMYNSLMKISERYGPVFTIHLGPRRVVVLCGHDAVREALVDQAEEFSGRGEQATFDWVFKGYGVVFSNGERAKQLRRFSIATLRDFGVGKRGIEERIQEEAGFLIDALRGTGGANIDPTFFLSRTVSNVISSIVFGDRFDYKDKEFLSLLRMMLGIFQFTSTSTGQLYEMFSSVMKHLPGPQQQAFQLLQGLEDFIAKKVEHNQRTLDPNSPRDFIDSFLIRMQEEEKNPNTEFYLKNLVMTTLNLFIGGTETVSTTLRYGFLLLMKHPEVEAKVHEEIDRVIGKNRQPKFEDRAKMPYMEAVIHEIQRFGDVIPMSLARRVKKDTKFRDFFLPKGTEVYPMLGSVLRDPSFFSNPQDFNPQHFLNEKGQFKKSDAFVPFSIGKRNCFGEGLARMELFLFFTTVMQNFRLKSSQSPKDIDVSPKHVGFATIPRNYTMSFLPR

plasma protein = experiment: In vitro plasma protein binding; assay type: in vitro ADME, rats; settings: rat
[6] = both, beagle, dog, plasma, po, 30 mg/kg, Fasted
[7] = both, beagle, dog, plasma, po, 30 mg/kg, Fed
[8] = both, beagle, dog, plasma, po, 30 mg/kg, Day 0, fed
[9] = both, beagle, dog, plasma, po, 30 mg/kg, Day 5, fed
[10] = female, beagle, dog, plasma, po, 30 mg/kg, Females
[11] = male, beagle, dog, plasma, po, 30 mg/kg, Males
[12] = male, beagle, dog, plasma, po, 30 mg/kg, Males, fed

In the case of `O=C1N=C(N2CCOCC2)CN1c1ccc(Cl)cc1` [Imepitoin, 1-(4-chlorophenyl)-4-morpholino-imidazolin-2-one], the Tmax ([1]; 50 mg/kg) is reported as 18 ± 3.8 h, the Tmax ([1]; 100 mg/kg) is reported as 8.67 ± 3.1 h and the Tlag obs ([1]; single dose 10 mg/kg p.o.) is reported as 3.67 ± 0.92 h. The Tlag obs ([1]; single dose 20 mg/kg p.o.) was 5.67 ± 0.95 h, the Tlag obs ([1]; single dose 50 mg/kg p.o.) was 4.17 ± 1.05 h and the Tlag obs ([1]; single dose 100 mg/kg p.o.) was 2.25 ± 0.94 h. The “anti-epileptic activity versus historical phenobarbital data” value [2] was “comparable anti-epileptic activity”, the tolerability versus phenobarbital [2] was “clearly superior to phenobarbital” and the “induction of NAT1” value (NAT1) was “did not induce”. The “influence on activity of CYP2C8” value (CYP2C8) was “did not influence”, the peak plasma concentration [3] was 1400 to 1700 ng/mL and the “solubility in acidic media such as gastric fluid” value [4] was “more readily soluble in acidic media”. For the same compound, the “solubility in aqueous media” value [4] was “very low solubility in aqueous media”, the “induction of CYP2D1” value (CYP2D1) was “did not induce” and the lipophilicity [5] was “high lipophilicity”. For the same compound, the maximal plasma concentrations (Single dose and repeated; beagle dogs) was 14.9 to 17.2 µg/mL, the “reduction of total AUC by co-administration with food” value (Single dose and repeated; crossover fed vs fasted) was 30% and the “AUCinf greater for fasted dogs” value (Single dose and repeated; fasted vs fed) was 30%. The Tmax (Single dose and repeated; Day 5 (after 4 days BID)) was 1.75 ^* h, the “Terminal T½” value (Single dose and repeated; Fasted) was 1.47 h and the “Terminal T½” value (Single dose and repeated; Fed) was 1.95 ^* h. It also gave an AUC(0-inf) (Single dose and repeated; [6]) of 90300 ng·h/mL, an AUC(0-inf) (Single dose and repeated; [7]) of 69200 ng·h/mL and a CL/F (Single dose and repeated; [8]) of 5.42 mL/min/kg. It also gave a CL/F (Single dose and repeated; [9]) of 8.92 mL/min/kg, a CL/F (Single dose and repeated; [6]) of 5.33 mL/min/kg and a CL/F (Single dose and repeated; [7]) of 6.95 mL/min/kg. The Cmax (Single dose and repeated; [8]) was 15000 ng/mL, the Cmax (Single dose and repeated; [9]) was 14800 ng/mL and the Cmax (Single dose and repeated; [6]) was 17200 ng/mL. The Cmax (Single dose and repeated; [7]) was 14900 ng/mL, the half-life (Single dose and repeated; both, beagle, dog, plasma, po, 30 mg/kg, Terminal T½, Fed) was 2 h and the Tmax (Single dose and repeated; both, beagle, dog, plasma, po, 30 mg/kg, Tmax, Day 0, fed) was 2.6 h. The Tmax (Single dose and repeated; both, beagle, dog, plasma, po, 30 mg/kg, Tmax, Day 5, fed) was 1.44 h, the Tmax (Single dose and repeated; both, beagle, dog, plasma, po, 30 mg/kg, Tmax, Fasted) was 2.17 h and the Tmax (Single dose and repeated; both, beagle, dog, plasma, po, 30 mg/kg, Tmax, Fed) was 2.02 h. The Vd/F (Single dose and repeated; [8]) was 0.892 L/kg, the Vd/F (Single dose and repeated; [9]) was 1.43 L/kg and the Vd/F (Single dose and repeated; [6]) was 0.663 L/kg. For the same compound, the Vd/F (Single dose and repeated; [7]) was 1.13 L/kg, the CL/F (Single dose and repeated; [10]) was 5.83 mL/min/kg and the Cmax (Single dose and repeated; [10]) was 18100 ng/mL. The Tmax (Single dose and repeated; female, beagle, dog, plasma, po, 30 mg/kg, Tmax, Females) was 1.89 h, the Vd/F (Single dose and repeated; [10]) was 0.833 L/kg and the AUC(0-inf) (Single dose and repeated; [11]) was 75500 ng·h/mL. The CL/F (Single dose and repeated; [11]) was 6.33 mL/min/kg, the CL/F (Single dose and repeated; [12]) was 7.33 mL/min/kg and the Cmax (Single dose and repeated; [11]) was 14200 ng/mL. The Cmax (Single dose and repeated; [12]) was 12500 ng/mL, the Tmax (Single dose and repeated; male, beagle, dog, plasma, po, 30 mg/kg, Tmax, Males) was 2.3 h and the Tmax (Single dose and repeated; male, beagle, dog, plasma, po, 30 mg/kg, Tmax, Males, fed) was 2.44 h. The Vd/F (Single dose and repeated; [11]) was 0.899 L/kg, the Vd/F (Single dose and repeated; [12]) was 1.19 L/kg and the IC50 (CYP2A6) was > 100 µM. The “Inhibition of the specific cytochrome P450 isoform IC50, 2A6” value (CYP2A6; recombinant human CYP2A6) was “did not influence”, the fraction unbound at 15 min, 0.1 μg/mL (plasma protein; heparinized plasma) was 0.49 and the fraction unbound at 15 min, 1 μg/mL (plasma protein; heparinized plasma) was 0.5 ± 0.0064. It also gave a fraction unbound at 15 min, 10 μg/mL (plasma protein; heparinized plasma) of 0.5 ± 0.011 and a fraction unbound at 15 min (plasma protein; plasma (heparinized, pool of five fasted animals)) of 0.49 to 0.5.
